Results on three compounds are retold here after US20060034925A1, “Tumor targeting drug-loaded particles” (priority 2004, published 2006).

In one data set the test system is peritoneal cancer. Conditions: intraperitoneal administration in patients; cited from earlier work.
The subject of data set [1] is multiple human tumor cells. The note with it: treatment for 3 hours; cited from earlier work.
In the next data set the test system is MIA-PaCa. As to the kind of experiment: cytotoxicity of paclitaxel, MTT assay. Conditions: Homo sapiens, MIA PaCa-2, read-out: concentration required to produce 50% cytotoxicity (IC50), 96 hour treatment, dissolved in water. The class given is cell-based. The procedure:
(§1) Drug effect was measured using the microtetrazolium dye reduction (MTT) assay.

In the next data set the test system is Hs766T. As to the kind of experiment: cytotoxicity of paclitaxel, MTT assay. The class given is cell-based. The note with it: Homo sapiens, read-out: concentration required to produce 50% cytotoxicity (IC50), 96 hour treatment, dissolved in water. The protocol: as §1
In general terms: Tetrazolium assays rely on reduction of a dye to a coloured formazan, in cell work by metabolically active cells.

Another data set concerns PANC1. As to the kind of experiment: cytotoxicity of paclitaxel, MTT assay. The class given is cell-based. Conditions: Homo sapiens, PANC-1, read-out: concentration required to produce 50% cytotoxicity (IC50), 96 hour treatment, dissolved in water. The procedure:
as §1

For data set [2], the system named is Human RT4 bladder transitional bladder cancer cells. As to the kind of experiment: cytotoxicity in RT4 cells, sulforhodamine B assay. The class given is cell-based.
Data set [3] can be described thus: retention of PLGA microparticles in peritoneal cavity. The class given is in vivo, mice. The note with it: intraperitoneal administration; at 24 hours. The source says:
Localization and disposition of PLGA microparticles within the peritoneal cavity after intraperitoneal administration was studied using rhodamine-loaded fluorescence microparticles. The disposition was compared with that of rhodamine in solution.

With `N.N.[Cl][Pt][Cl]` [cisplatin], in the data set on peritoneal cancer, the “extension of survival time” value was “about 20%”.

On to `CC(=O)O[C@H]1C(=O)[C@@]2(C)[C@H]([C@H](OC(=O)c3ccccc3)[C@]3(O)C[C@H](OC(=O)[C@H](O)[C@@H](NC(=O)c4ccccc4)c4ccccc4)C(C)=C1C3(C)C)[C@]1(OC(C)=O)CO[C@@H]1C[C@@H]2O` [paclitaxel], for which the “concentration sufficient to induce apoptosis” value in data set [1] was 200 nM. In addition, the IC50 is 0.7 nM with MIA-PaCa; 0.7 nM in the data set on Hs766T; 1.5 nM in the data set with PANC1; 11 ± 0.4 nM in data set [2] (RT-4, 48 h, RT4, 48 hour treatment, immediate effect); 4 ± 0.4 nM in data set [2] (RT-4, 96 h, RT4, 96 hour treatment, immediate effect); 157 ± 6.6 nM in data set [2] (RT-4, RT4, 15 minute treatment, delayed effect measured at 96 hours). The compound also gave an IC50 in data set [2] (RT-4, RT4, 2 hour treatment, delayed effect measured at 96 hours) of 33 ± 4.8 nM.

With `CCN(CC)c1ccc2c(-c3ccccc3C(=O)O)c3ccc(=[N+](CC)CC)cc-3oc2c1` [rhodamine in solution, rhodamine], in data set [3], the “localization in the peritoneal cavity (fluorescence)” value was “could no longer be observed in the peritoneal cavity”.
